Reference: the supplement of paper PMC10307832

How the values were obtained:
Assay in all cases: relative viability (nuclei count vs DMSO), 5 days (fraction); higher = more cells survive
[1] = compound: O=S(=O)(c1ccccc1)N(CC(F)(F)F)c1ccc(C(O)(C(F)(F)F)C(F)(F)F)cc1 + CS(=O)(=O)CCNCc1ccc(-c2ccc3ncnc(Nc4ccc(OCc5cccc(F)c5)c(Cl)c4)c3c2)o1 [Lapatinib] (partner 2 µM)
Outline: (§1)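 For relative viability, nuclei counts in treated wells were divided by those in vehicle wells. Lung cancer cell lines had been pin-tool dosed in 1536-well plates the day after seeding and cultured for 5 days, then fixed and stained in one step (final 0.05% Triton X-100, 1% formaldehyde, 1 ug/ml Hoechst) and imaged at 4×. Doses were one drug alone or a fixed anchor-drug dose plus five library-drug doses (not always all listed) in √10 steps, and values are duplicate-plate medians.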

RO-3306 + Linsitinib = compound: C1=CC2=C(C=CC(=C2)C=C3C(=O)NC(=NCC4=CC=CS4)S3)N=C1 [RO-3306] + C[C@]1(O)C[C@@H](c2nc(-c3ccc4ccc(-c5ccccc5)nc4c3)c3c(N)nccn32)C1 [Linsitinib] (partner 1 µM)
Outline: as §1

RO-3306 + Dasatinib = compound: C1=CC2=C(C=CC(=C2)C=C3C(=O)NC(=NCC4=CC=CS4)S3)N=C1 [RO-3306] + Cc1nc(Nc2ncc(C(=O)Nc3c(C)cccc3Cl)s2)cc(N2CCN(CCO)CC2)n1 [Dasatinib] (partner 0.075 µM)
Outline: as §1

[2] = compound: O=S(=O)(c1ccccc1)N(CC(F)(F)F)c1ccc(C(O)(C(F)(F)F)C(F)(F)F)cc1 + NC(=O)Nc1cc(-c2cccc(F)c2)sc1C(=O)N[C@H]1CCCNC1 [AZD7762] (partner 0.2 µM)
Outline: as §1

Cell Line: COR-L23
- relative viability ([1]; first compound 0.8 µM): 1.24
- relative viability ([1]; first compound 2.53 µM): 0.872
- relative viability ([1]; first compound 8 µM): 0.913
- relative viability (RO-3306 + Linsitinib; first compound 0.01 µM): 1.02
- relative viability (RO-3306 + Linsitinib; first compound 0.1 µM): 0.866
- relative viability (RO-3306 + Linsitinib; first compound 0.3162 µM): 0.938
- relative viability (RO-3306 + Linsitinib; first compound 1 µM): 1.06
- relative viability (RO-3306 + Dasatinib; first compound 0.01 µM): 0.477
- relative viability (RO-3306 + Dasatinib; first compound 0.03162 µM): 0.392
- relative viability (RO-3306 + Dasatinib; first compound 0.1 µM): 0.48
- relative viability (RO-3306 + Dasatinib; first compound 0.3162 µM): 0.642
- relative viability (RO-3306 + Dasatinib; first compound 1 µM): 0.374

Cell Line: SW 900
- relative viability (RO-3306 + Dasatinib; first compound 0.01 µM): 0.505
- relative viability (RO-3306 + Dasatinib; first compound 0.03162 µM): 0.538
- relative viability (RO-3306 + Dasatinib; first compound 0.1 µM): 0.658
- relative viability (RO-3306 + Dasatinib; first compound 0.3162 µM): 0.859
- relative viability (RO-3306 + Dasatinib; first compound 1 µM): 0.542
- relative viability ([2]; first compound 0.8 µM): 0.609
- relative viability ([2]; first compound 2.53 µM): 0.53
- relative viability ([2]; first compound 8 µM): 0.709

Cell Line: NCI-H520
- relative viability ([1]; first compound 0.8 µM): 1.07
- relative viability ([1]; first compound 2.53 µM): 0.84
- relative viability ([1]; first compound 8 µM): 1.01
- relative viability (RO-3306 + Linsitinib; first compound 0.01 µM): 1.05
- relative viability (RO-3306 + Linsitinib; first compound 0.03162 µM): 0.872
- relative viability (RO-3306 + Linsitinib; first compound 0.1 µM): 0.82
- relative viability (RO-3306 + Linsitinib; first compound 0.3162 µM): 1.2
- relative viability (RO-3306 + Linsitinib; first compound 1 µM): 0.824
- relative viability (RO-3306 + Dasatinib; first compound 0.01 µM): 0.168
- relative viability (RO-3306 + Dasatinib; first compound 0.03162 µM): 0.195
- relative viability (RO-3306 + Dasatinib; first compound 0.1 µM): 0.178
- relative viability (RO-3306 + Dasatinib; first compound 0.3162 µM): 0.195
- relative viability (RO-3306 + Dasatinib; first compound 1 µM): 0.162

Cell Line: A549
- relative viability ([1]; first compound 0.8 µM): 0.949
- relative viability ([1]; first compound 2.53 µM): 0.772
- relative viability ([1]; first compound 8 µM): 0.715
- relative viability (RO-3306 + Linsitinib; first compound 0.01 µM): 0.762
- relative viability (RO-3306 + Linsitinib; first compound 0.03162 µM): 0.305
- relative viability (RO-3306 + Linsitinib; first compound 0.1 µM): 0.622
- relative viability (RO-3306 + Linsitinib; first compound 0.3162 µM): 0.69
- relative viability (RO-3306 + Linsitinib; first compound 1 µM): 0.623

Cell Line: NCI-H441
- relative viability (RO-3306 + Linsitinib; first compound 0.01 µM): 0.53
- relative viability (RO-3306 + Linsitinib; first compound 0.03162 µM): 0.385
- relative viability (RO-3306 + Linsitinib; first compound 0.1 µM): 0.479
- relative viability (RO-3306 + Linsitinib; first compound 0.3162 µM): 0.554
- relative viability (RO-3306 + Linsitinib; first compound 1 µM): 0.405
- relative viability (RO-3306 + Dasatinib; first compound 0.01 µM): 0.499
- relative viability (RO-3306 + Dasatinib; first compound 0.03162 µM): 0.392
- relative viability (RO-3306 + Dasatinib; first compound 0.1 µM): 0.657
- relative viability (RO-3306 + Dasatinib; first compound 0.3162 µM): 0.485
- relative viability (RO-3306 + Dasatinib; first compound 1 µM): 0.709
- relative viability ([2]; first compound 0.8 µM): 1.34
- relative viability ([2]; first compound 2.53 µM): 1.2
- relative viability ([2]; first compound 8 µM): 0.996

Cell Line: SW 1573
- relative viability ([1]; first compound 0.8 µM): 1.18
- relative viability ([1]; first compound 2.53 µM): 1.2
- relative viability ([1]; first compound 8 µM): 1.06
- relative viability (RO-3306 + Linsitinib; first compound 0.01 µM): 0.869
- relative viability (RO-3306 + Linsitinib; first compound 0.03162 µM): 0.721
- relative viability (RO-3306 + Linsitinib; first compound 0.1 µM): 0.805
- relative viability (RO-3306 + Linsitinib; first compound 0.3162 µM): 0.762
- relative viability (RO-3306 + Linsitinib; first compound 1 µM): 0.727
- relative viability (RO-3306 + Dasatinib; first compound 0.01 µM): 0.455
- relative viability (RO-3306 + Dasatinib; first compound 0.1 µM): 0.466
- relative viability (RO-3306 + Dasatinib; first compound 0.3162 µM): 0.497
- relative viability (RO-3306 + Dasatinib; first compound 1 µM): 0.429

Cell Line: ChaGo-K-1
- relative viability (RO-3306 + Dasatinib; first compound 0.01 µM): 0.63
- relative viability (RO-3306 + Dasatinib; first compound 0.03162 µM): 0.624
- relative viability (RO-3306 + Dasatinib; first compound 0.1 µM): 0.569
- relative viability (RO-3306 + Dasatinib; first compound 0.3162 µM): 0.622
- relative viability (RO-3306 + Dasatinib; first compound 1 µM): 0.349
- relative viability ([2]; first compound 0.8 µM): 0.952
- relative viability ([2]; first compound 2.53 µM): 0.888
- relative viability ([2]; first compound 8 µM): 0.791

Cell Line: NCI-H1623
- relative viability (RO-3306 + Dasatinib; first compound 0.01 µM): 0.474
- relative viability (RO-3306 + Dasatinib; first compound 0.03162 µM): 0.504
- relative viability (RO-3306 + Dasatinib; first compound 0.1 µM): 0.525
- relative viability (RO-3306 + Dasatinib; first compound 0.3162 µM): 0.555
- relative viability (RO-3306 + Dasatinib; first compound 1 µM): 0.52

Cell Line: NCI-H1703
- relative viability ([1]; first compound 0.8 µM): 1.21
- relative viability ([1]; first compound 2.53 µM): 0.749
- relative viability ([1]; first compound 8 µM): 0.906
- relative viability (RO-3306 + Linsitinib; first compound 0.01 µM): 1.04
- relative viability (RO-3306 + Linsitinib; first compound 0.03162 µM): 0.409
- relative viability (RO-3306 + Linsitinib; first compound 0.1 µM): 0.598
- relative viability (RO-3306 + Linsitinib; first compound 0.3162 µM): 0.22
- relative viability (RO-3306 + Linsitinib; first compound 1 µM): 0.681
- relative viability ([2]; first compound 0.8 µM): 0.132
- relative viability ([2]; first compound 2.53 µM): 0.119
- relative viability ([2]; first compound 8 µM): 0.132

Cell Line: LCLC-103H
- relative viability (RO-3306 + Linsitinib; first compound 0.01 µM): 1.03
- relative viability (RO-3306 + Linsitinib; first compound 0.03162 µM): 0.934
- relative viability (RO-3306 + Linsitinib; first compound 0.1 µM): 1.16
- relative viability (RO-3306 + Linsitinib; first compound 0.3162 µM): 1.05
- relative viability (RO-3306 + Linsitinib; first compound 1 µM): 1.05
- relative viability (RO-3306 + Dasatinib; first compound 0.01 µM): 0.472
- relative viability (RO-3306 + Dasatinib; first compound 0.03162 µM): 0.478
- relative viability (RO-3306 + Dasatinib; first compound 0.1 µM): 0.44
- relative viability (RO-3306 + Dasatinib; first compound 0.3162 µM): 0.401
- relative viability (RO-3306 + Dasatinib; first compound 1 µM): 0.385
- relative viability ([2]; first compound 0.8 µM): 0.841
- relative viability ([2]; first compound 2.53 µM): 0.826
- relative viability ([2]; first compound 8 µM): 0.948

Cell Line: HCC-44
- relative viability ([1]; first compound 0.8 µM): 1.07
- relative viability ([1]; first compound 2.53 µM): 1.04
- relative viability ([1]; first compound 8 µM): 0.998
- relative viability (RO-3306 + Linsitinib; first compound 0.01 µM): 0.718
- relative viability (RO-3306 + Linsitinib; first compound 0.03162 µM): 0.674
- relative viability (RO-3306 + Linsitinib; first compound 0.1 µM): 0.68
- relative viability (RO-3306 + Linsitinib; first compound 0.3162 µM): 0.663
- relative viability (RO-3306 + Linsitinib; first compound 1 µM): 0.693
- relative viability ([2]; first compound 0.8 µM): 1.04
- relative viability ([2]; first compound 2.53 µM): 0.988
- relative viability ([2]; first compound 8 µM): 0.994

Cell Line: NCI-H1563
- relative viability ([1]; first compound 0.8 µM): 0.85
- relative viability ([1]; first compound 2.53 µM): 0.899
- relative viability ([1]; first compound 8 µM): 0.761
- relative viability (RO-3306 + Linsitinib; first compound 0.01 µM): 1.08
- relative viability (RO-3306 + Linsitinib; first compound 0.03162 µM): 1.14
- relative viability (RO-3306 + Linsitinib; first compound 0.1 µM): 1.3
- relative viability (RO-3306 + Linsitinib; first compound 0.3162 µM): 1.18
- relative viability (RO-3306 + Linsitinib; first compound 1 µM): 1.16
- relative viability (RO-3306 + Dasatinib; first compound 0.01 µM): 0.413
- relative viability (RO-3306 + Dasatinib; first compound 0.03162 µM): 0.526
- relative viability (RO-3306 + Dasatinib; first compound 0.1 µM): 0.415
- relative viability (RO-3306 + Dasatinib; first compound 0.3162 µM): 0.48
- relative viability (RO-3306 + Dasatinib; first compound 1 µM): 0.451

Cell Line: IA-LM
- relative viability ([1]; first compound 0.8 µM): 0.903
- relative viability ([1]; first compound 2.53 µM): 0.68
- relative viability ([1]; first compound 8 µM): 0.752
- relative viability (RO-3306 + Linsitinib; first compound 0.01 µM): 0.559
- relative viability (RO-3306 + Linsitinib; first compound 0.1 µM): 0.56
- relative viability (RO-3306 + Linsitinib; first compound 0.3162 µM): 0.571
- relative viability (RO-3306 + Linsitinib; first compound 1 µM): 0.809

Cell Line: NCI-H2009
- relative viability ([1]; first compound 0.8 µM): 0.922
- relative viability ([1]; first compound 2.53 µM): 0.804
- relative viability ([1]; first compound 8 µM): 0.844
- relative viability (RO-3306 + Linsitinib; first compound 0.01 µM): 1.22
- relative viability (RO-3306 + Linsitinib; first compound 0.03162 µM): 1.12
- relative viability (RO-3306 + Linsitinib; first compound 0.1 µM): 1.18
- relative viability (RO-3306 + Linsitinib; first compound 0.3162 µM): 1.23
- relative viability (RO-3306 + Linsitinib; first compound 1 µM): 1.23
- relative viability (RO-3306 + Dasatinib; first compound 0.01 µM): 0.279
- relative viability (RO-3306 + Dasatinib; first compound 0.03162 µM): 0.267
- relative viability (RO-3306 + Dasatinib; first compound 0.1 µM): 0.265
- relative viability (RO-3306 + Dasatinib; first compound 0.3162 µM): 0.293
- relative viability (RO-3306 + Dasatinib; first compound 1 µM): 0.277

Cell Line: NCI-H2342
- relative viability (RO-3306 + Dasatinib; first compound 0.01 µM): 0.37
- relative viability (RO-3306 + Dasatinib; first compound 0.03162 µM): 0.306
- relative viability (RO-3306 + Dasatinib; first compound 0.1 µM): 0.319
- relative viability (RO-3306 + Dasatinib; first compound 0.3162 µM): 0.289
- relative viability (RO-3306 + Dasatinib; first compound 1 µM): 0.303
- relative viability ([2]; first compound 0.8 µM): 0.527
- relative viability ([2]; first compound 2.53 µM): 0.559
- relative viability ([2]; first compound 8 µM): 0.477
